The structures appear in SMILES notation.

By IC50 is commonly meant the midpoint of a concentration-inhibition curve.

The target of this assay is T1, hCB1 (Homo sapiens, UniProt P21554).
T1 construct: made in house; host or cells: Sf9 insect cells (baculovirus), P2 membranes
T1 sequence (P21554 whole entry): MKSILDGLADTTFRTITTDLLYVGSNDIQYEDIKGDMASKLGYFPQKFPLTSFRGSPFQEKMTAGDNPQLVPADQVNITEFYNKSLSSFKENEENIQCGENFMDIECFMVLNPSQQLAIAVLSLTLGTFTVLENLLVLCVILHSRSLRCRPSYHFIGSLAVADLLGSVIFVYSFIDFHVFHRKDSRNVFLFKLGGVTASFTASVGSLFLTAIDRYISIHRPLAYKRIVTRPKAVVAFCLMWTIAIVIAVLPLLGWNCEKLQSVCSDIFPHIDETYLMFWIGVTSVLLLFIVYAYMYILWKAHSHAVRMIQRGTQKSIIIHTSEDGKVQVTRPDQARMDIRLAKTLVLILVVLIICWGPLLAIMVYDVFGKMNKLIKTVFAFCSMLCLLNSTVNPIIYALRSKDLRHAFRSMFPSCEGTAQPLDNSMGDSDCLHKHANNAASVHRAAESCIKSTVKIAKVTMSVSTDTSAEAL
The experiment in a line: Agonist-induced GTP binding (GTPγ35S) assay at CB1, Example 8. It is filed as biochemical. The settings on record: Table I; IC50 at CB1, GTP binding with 1 nM CP55,940; read-out: IC50. An excerpt:
As noted above, compounds provided herein are CB1 antagonists. Certain such compounds are non-competitive CB1 antagonists. In addition, or alternatively, certain compounds provided herein display CB1 specificity. CB1 antagonist activity may be confirmed using an agonist-induced GTP binding assay, such as the assay described in Example 8. Such assays employ a CB1-containing cell membrane preparation (e.g., a preparation of membranes of insect cells that recombinantly express CB1) to determine the effect of a test compound on CB1 agonist-induced GTP binding to CB1. Briefly, a first cell membrane preparation comprising CB1 is contacted with: (i) labeled GTP; (ii) a CB1 agonist; and (iii) a test compound to yield a test membrane preparation. Simultaneously, or in either order, a second cell membrane preparation comprising CB1 is contacted with: (i) labeled GTP; and (ii) a CB1 agonist to yield a control membrane preparation. The labeled GTP is preferably GTPγ^35S; a representative CB1 agonist is CP55,940. Such contact is performed under conditions that are suitable for GTP binding to CB1, such as the conditions described in Example 8. The concentrations of labeled GTP and CB1 agonist used are generally concentrations that are sufficient to result in a detectable increase in the amount of labeled GTP bound to the membrane preparation in the presence of CB1 agonist. Such concentrations may be determined by routine experimentation; representative suitable concentrations are provided in Example 8. Generally, a range of test compound concentrations is used (e.g., ranging from 10^−10M to 10^−5M).
After sufficient contact (e.g., incubation) to allow GTP binding to the membrane preparations, a signal that corresponds to (represents) the amount of bound, labeled GTP is detected (typically, unbound labeled GTP is first removed via a washing step). In other words, simultaneously or in either order: (i) a test signal that represents an amount of bound, labeled GTP in the test membrane preparation is detected; and (ii) a control signal that represents an amount of bound, labeled GTP in the control membrane preparation is detected. The nature of the signal detected is determined by the type of label used. For example, if the GTP is radioactively labeled, the signal detected is radioactive decay (e.g., via liquid scintillation spectrometry). The CB1 antagonist activity of the test compound is then determined by comparing the test signal with the control signal.
This assay can also be used to detect partial agonism mediated by antagonist compounds. A compound being analyzed in this assay is referred to herein as a “test compound.” Agonist-stimulated GTP binding activity is measured as follows: Four independent baculoviral stocks (one directing the expression of hCB1 and three directing the expression of each of the three subunits of a heterotrimeric G-protein) are used to infect a culture of Sf9 cells as described in Example 5.
Agonist-stimulated GTP binding on purified membranes (as described in Example 6) is initially assessed using the cannabinoid agonist CP55,940 to ascertain that the receptor/G-protein-alpha-beta-gamma combination(s) yield a functional response as measured by GTP binding.
P2 membranes are resuspended by Dounce homogenization (tight pestle) in GTP binding assay buffer (50 mM Tris pH 7.4, 120 mM NaCl, 5 mM MgCl2, 2 mM EGTA, 0.1% BSA, 0.1 mM bacitracin, 10 KIU/mL aprotinin, 5 μM GDP) and added to reaction tubes at a concentration of 10 μg protein/reaction tube. After adding increasing doses of the agonist CP55,940 at concentrations ranging from 10^−12 M to 10^−6 M, reactions are initiated by the addition of […] GTPγ^35S. In competition experiments, non-radiolabeled test compounds are added to separate assays at concentrations ranging from 10^−10 M to 10^−5 M along with 1 nM CP55,940 to yield a final volume of 0.25 mL. […]
Regarding `O=C(Nc1ccc(OC(F)F)cc1)Nc1ccc(OC(F)F)cc1` [Compound 4, N,N′-bis[4-(difluoromethoxy)phenyl]urea], the IC50 was below 2000 nM.
For `CCc1ccc(NC(=O)Nc2ccc(OC(F)F)cc2)cc1` [Compound 5, N-[4-(difluoromethoxy)phenyl]-N′-(4-ethylphenyl)urea] the value was below 2000 nM; for `COc1cc(NC(=O)Nc2ccc(OC(F)F)cc2)ccc1OC(F)F` [Compound 6, N-[4-(difluoromethoxy)-3-methoxyphenyl]-N′-[4-(difluoromethoxy)phenyl]urea], below 2000 nM.
For `N#Cc1cccc(NC(=O)Nc2ccc(OC(F)F)cc2)c1` [Compound 8, N-(3-cyanophenyl)-N′-[4-(difluoromethoxy)phenyl]urea] the value was below 2000 nM; for `CCOc1cccc(NC(=O)Nc2ccc(OC(F)F)cc2)c1` [Compound 9, N-[4-(difluoromethoxy)phenyl]-N′-(3-ethoxyphenyl)urea], below 2000 nM; for `Cc1nccc(-c2cccc(NC(=O)Nc3ccc(OC(F)F)cc3)c2)n1` [Compound 10, N-[4-(difluoromethoxy)phenyl]-N′-[3-(2-methylpyrimidin-4-yl)phenyl]urea], below 2000 nM.
For `CCc1cccc(NC(=O)Nc2ccc(OC(F)F)cc2)c1` [Compound 11, N-[4-(difluoromethoxy)phenyl]-N′-(3-ethylphenyl)urea] the value was below 2000 nM.
Regarding `CC(=O)c1cccc(NC(=O)Nc2ccc(OC(F)F)cc2)c1` [Compound 12, N-(3-acetylphenyl)-N′-[4-(difluoromethoxy)phenyl]urea], the IC50 is below 2000 nM.
As for `O=C(Nc1ccc(OC(F)F)cc1)Nc1cccc(OCCO)c1` [Compound 14, N-[4-(difluoromethoxy)phenyl]-N′-[3-(2-hydroxyethoxy)phenyl]urea], the IC50 is below 2000 nM.
The same measure for `O=C(Nc1ccc(OC(F)F)cc1)Nc1cccc(Cl)c1` [Compound 15, N-(3-chlorophenyl)-N′-[4-(difluoromethoxy)phenyl]urea]: below 2000 nM; for `O=C(Nc1ccc(OC(F)F)cc1)Nc1cccc(F)c1` [Compound 16, N-[4-(difluoromethoxy)phenyl]-N′-(3-fluorophenyl)urea]: below 2000 nM.
As to `O=C(Nc1ccc(OC(F)F)cc1)Nc1cccc(O)c1` [Compound 17, N-[4-(difluoromethoxy)phenyl]-N′-(3-hydroxyphenyl)urea], the IC50 is below 2000 nM.
For `Cc1cccc(NC(=O)Nc2ccc(OC(F)F)cc2)c1` [Compound 18, N-[4-(difluoromethoxy)phenyl]-N′-(3-methylphenyl)urea] the value was below 2000 nM.
For `CCCc1ccc(NC(=O)Nc2ccc(CC)cc2)cc1` [Compound 20, N-(4-ethylphenyl)-N′-(4-propylphenyl)urea] the value was below 2000 nM.
For `CCc1ccc(NC(=O)Nc2ccc(CC)cc2)cc1` [Compound 21, N,N′-bis(4-ethylphenyl)urea] the value was below 2000 nM; for `CCc1ccc(NC(=O)Nc2ccc(C(C)=O)cc2)cc1` [Compound 22, N-(4-acetylphenyl)-N′-(4-ethylphenyl)urea], below 2000 nM.
Turning to `CCc1ccc(NC(=O)Nc2cccc(OC(C)C)c2)cc1` [Compound 23, N-(4-ethylphenyl)-N′-(3-isopropoxyphenyl)urea], the IC50 was below 2000 nM.
For `CCCOc1ccc(NC(=O)Nc2ccc(CC)cc2)cc1` [Compound 24, N-(4-ethylphenyl)-N′-(4-propoxyphenyl)urea] the value was below 2000 nM; for `CCc1ccc(NC(=O)Nc2ccc(Cl)cc2)cc1` [Compound 25, N-(4-chlorophenyl)-N′-(4-ethylphenyl)urea], below 2000 nM; for `CCc1ccc(NC(=O)Nc2ccc(C#N)cc2)cc1` [Compound 27, N-(4-cyanophenyl)-N′-(4-ethylphenyl)urea], below 2000 nM.
For `CCc1ccc(NC(=O)Nc2ccc(CO)cc2)cc1` [Compound 28, N-(4-ethylphenyl)-N′-[4-(hydroxymethyl)phenyl]urea] the value was below 2000 nM.
For `CCc1ccc(NC(=O)Nc2ccc(O)cc2)cc1` [Compound 29, N-(4-ethylphenyl)-N′-(4-hydroxyphenyl)urea] the value was below 2000 nM; for `CCc1ccc(NC(=O)Nc2ccccc2)cc1` [Compound 35, N-(4-ethylphenyl)-N′-phenylurea], below 2000 nM.
For the compound `CCCCc1ccc(NC(=O)Nc2ccc(C)cc2)cc1` [Compound 37, N-(4-butylphenyl)-N′-(4-methylphenyl)urea], the IC50 was below 2000 nM.
The same measure for `Cc1ccc(NC(=O)Nc2cccc(OC(C)C)c2)cc1` [Compound 38, N-(3-isopropoxyphenyl)-N′-(4-methylphenyl)urea]: below 2000 nM; for `CCCc1ccc(NC(=O)Nc2ccc(C)cc2)cc1` [Compound 39, N-(4-methylphenyl)-N′-(4-propylphenyl)urea]: below 2000 nM; for `CCCOc1ccc(NC(=O)Nc2ccc(C)cc2)cc1` [Compound 40, N-(4-methylphenyl)-N′-(4-propoxyphenyl)urea]: below 2000 nM.
The same measure for `Cc1ccc(NC(=O)Nc2ccc(OC(F)F)cc2)cc1` [Compound 41, N-[4-(difluoromethoxy)phenyl]-N′-(4-methylphenyl)urea]: below 2000 nM.
For `CCc1ccc(NC(=O)Nc2ccc(C)cc2)cc1` [Compound 42, N-(4-ethylphenyl)-N′-(4-methylphenyl)urea] the value was below 2000 nM.
For the compound `Cc1ccc(NC(=O)Nc2ccc(Cl)cc2)cc1` [Compound 43, N-(4-chlorophenyl)-N′-(4-methylphenyl)urea], the IC50 is below 2000 nM.
For `CCCOc1ccc(NC(=O)Nc2ccccc2)cc1` [Compound 44, N-phenyl-N′-(4-propoxyphenyl)urea] the value was below 2000 nM.
For `CCCc1ccc(NC(=O)Nc2ccccc2)cc1` [Compound 45, N-phenyl-N′-(4-propylphenyl)urea] the value was below 2000 nM; for `CCCCc1ccc(NC(=O)Nc2ccccc2)cc1` [Compound 46, N-(4-butylphenyl)-N′-phenylurea], below 2000 nM; for `CC(C)c1ccc(NC(=O)Nc2ccccc2)cc1` [Compound 47, N-(4-isopropylphenyl)-N′-phenylurea], below 2000 nM.
Regarding `O=C(Nc1ccccc1)Nc1ccc(OC(F)F)cc1` [Compound 48, N-[4-(difluoromethoxy)phenyl]-N′-phenylurea], the IC50 was below 2000 nM.
In the case of `CC(C)Oc1cccc(NC(=O)Nc2ccccc2)c1` [Compound 49, N-(3-isopropoxyphenyl)-N′-phenylurea], the half-inhibitory concentration (IC50) is below 2000 nM.
For `CCc1ccc(NC(=O)Nc2ccc(OC(F)F)c(OC)c2)cc1` [Compound 53, N-[4-(difluoromethoxy)-3-methoxyphenyl]-N′-(4-ethylphenyl)urea] the value was below 2000 nM.
On to `COc1cc(NC(=O)Nc2ccc(OC(F)F)c(OC)c2)ccc1OC(F)F` [Compound 54, N,N′-bis[4-(difluoromethoxy)-3-methoxyphenyl]urea], for which the half-maximal inhibitory concentration (IC50) is below 2000 nM.
In the case of `CCc1ccc(NC(=O)Nc2cccc(C#N)c2)cc1` [Compound 55, N-(3-cyanophenyl)-N′-(4-ethylphenyl)urea], the 50% inhibitory concentration (IC50) is below 2000 nM.
For `CCc1ccc(NC(=O)Nc2cccc(C(C)=O)c2)cc1` [Compound 56, N-(3-acetylphenyl)-N′-(4-ethylphenyl)urea], the 50% inhibitory concentration (IC50) was below 2000 nM.
Regarding `CCc1ccc(NC(=O)Nc2cccc(OC)c2)cc1` [Compound 57, N-(4-ethylphenyl)-N′-(3-methoxyphenyl)urea], the IC50 is below 2000 nM.
As for `CCc1ccc(NC(=O)Nc2cccc(F)c2)cc1` [Compound 58, N-(4-ethylphenyl)-N′-(3-fluorophenyl)urea], the IC50 was below 2000 nM.

These data come from US20090239841A1, “Diaryl Ureas as CB1 Antagonists” (priority 2004, published 2009).
